Reference: ChEMBL document CHEMBL5385890, “A JAK tyrosine kinase and pseudokinase Co-inhibition strategy combines enhanced potency and on-demand activation” (Eur J Med Chem, 2023)
The source made the active and inactive calls. The calls are words filed in the database; no cut-off is given here.

How the values were obtained:
[1] = system: HEL; assay: Synergistic cytotoxicity against HEL cells assessed as combination index for 25% activity in presence of ruxolitinib; format: functional, Homo sapiens
[2] = system: HEL; assay: Cytotoxicity against HEL cells assessed as inhibition of cell growth incubated in presence of tofacitinib; format: functional, cell-based; details: Homo sapiens
[3] = system: HEL; assay: Synergistic cytotoxicity against HEL cells assessed as combination index for 50% activity in presence of decernotinib; format: functional, Homo sapiens
[4] = system: HEL; assay: Cytotoxicity against HEL cells assessed as inhibition of cell growth irradiated with 450 nm light and incubated in presence of 3-cyclopropyl-1-(3-{5-[(morpholin-4-yl)methyl]-1H-1,3-benzodiazol-2-yl}-1H-pyrazol-4-yl)urea; format: functional, cell-based; details: Homo sapiens, light or radiation study
[5] = system: HEL; assay: Cytotoxicity against HEL cells assessed as inhibition of cell growth at 50 uM relative to control; format: functional; details: Homo sapiens
[6] = system: HEL; assay: Antitumor activity against HEL cells xenografted in Balb/c nude mouse assessed as tumor growth inhibition at 32.5 mg/kg, ip administered once daily for 14 consecutive days relative to control; format: functional, Homo sapiens; details: 336 h, time 14 day, read-out: TGI
[7] = system: HEL; assay: Cytotoxicity against HEL cells assessed as inhibition of cell growth incubated in presence of decernotinib; format: functional, cell-based; details: Homo sapiens
[8] = system: HEL; assay: Cytotoxicity against HEL cells assessed as inhibition of cell growth incubated under dark condition in presence of 3-cyclopropyl-1-(3-{5-[(morpholin-4-yl)methyl]-1H-1,3-benzodiazol-2-yl}-1H-pyrazol-4-yl)urea; format: functional, cell-based; details: Homo sapiens
[9] = system: HEL; assay: Cytotoxicity against HEL cells assessed as inhibition of cell growth incubated under hypoxic condition in presence of 3-cyclopropyl-1-(3-{5-[(morpholin-4-yl)methyl]-1H-1,3-benzodiazol-2-yl}-1H-pyrazol-4-yl)urea; format: functional, cell-based; details: Homo sapiens
[10] = Cytotoxicity against HUVEC cells assessed as inhibition of cell growth incubated in presence of 3-cyclopropyl-1-(3-{5-[(morpholin-4-yl)methyl]-1H-1,3-benzodiazol-2-yl}-1H-pyrazol-4-yl)urea; format: toxicity, cell-based; details: human
[11] = system: HEL; assay: Cytotoxicity against HEL cells assessed as inhibition of cell growth at 25 uM relative to control; format: functional; details: Homo sapiens
[12] = system: BaF3; assay: Cytotoxicity against mouse BaF3 cells harboring EPOR JAK2 V617F mutant; format: functional, cell-based
[13] = system: HEL; assay: Synergistic cytotoxicity against HEL cells assessed as combination index for 95% activity in presence of tofacitinib; format: functional, Homo sapiens
[14] = system: HEL; assay: Synergistic cytotoxicity against HEL cells assessed as combination index for 50% activity in presence of ruxolitinib; format: functional, Homo sapiens
[15] = system: HEL; assay: Synergistic cytotoxicity against HEL cells assessed as combination index for 95% activity in presence of 3-cyclopropyl-1-(3-{5-[(morpholin-4-yl)methyl]-1H-1,3-benzodiazol-2-yl}-1H-pyrazol-4-yl)urea; format: functional, Homo sapiens
[16] = system: HEL; assay: Cytotoxicity against HEL cells assessed as inhibition of cell growth at 0.04 uM relative to control; format: functional; details: Homo sapiens
[17] = system: HEL; assay: Synergistic cytotoxicity against HEL cells assessed as combination index for 50% activity in presence of 3-cyclopropyl-1-(3-{5-[(morpholin-4-yl)methyl]-1H-1,3-benzodiazol-2-yl}-1H-pyrazol-4-yl)urea; format: functional, Homo sapiens
[18] = system: HEL; assay: Synergistic cytotoxicity against HEL cells assessed as combination index for 25% activity in presence of tofacitinib; format: functional, Homo sapiens
[19] = Cytotoxicity against HUVEC cells assessed as inhibition of cell growth; format: toxicity, cell-based; details: human
[20] = system: HEL; assay: Cytotoxicity against HEL cells assessed as inhibition of cell growth incubated in presence of 3-cyclopropyl-1-(3-{5-[(morpholin-4-yl)methyl]-1H-1,3-benzodiazol-2-yl}-1H-pyrazol-4-yl)urea; format: functional, cell-based; details: Homo sapiens
[21] = system: HEL; assay: Synergistic cytotoxicity against HEL cells assessed as combination index for 25% activity in presence of decernotinib; format: functional, Homo sapiens
[22] = system: HEL; assay: Synergistic cytotoxicity against HEL cells assessed as combination index for 75% activity in presence of tofacitinib; format: functional, Homo sapiens
[23] = system: HEL; assay: Cytotoxicity against HEL cells assessed as inhibition of cell growth at 1 uM relative to control; format: functional; details: Homo sapiens
[24] = system: HEL; assay: Cytotoxicity against HEL cells assessed as inhibition of cell growth at 0.008 uM relative to control; format: functional; details: Homo sapiens
[25] = system: HEL; assay: Synergistic cytotoxicity against HEL cells assessed as combination index for 75% activity in presence of ruxolitinib; format: functional, Homo sapiens
[26] = system: HEL; assay: Synergistic cytotoxicity against HEL cells assessed as combination index for 95% activity in presence of ruxolitinib; format: functional, Homo sapiens
[27] = system: HEL; assay: Synergistic cytotoxicity against HEL cells assessed as combination index for 50% activity in presence of tofacitinib; format: functional, Homo sapiens
[28] = system: HEL; assay: Cytotoxicity against HEL cells assessed as inhibition of cell growth at 5 uM relative to control; format: functional; details: Homo sapiens
[29] = system: HEL; assay: Synergistic cytotoxicity against HEL cells assessed as combination index for 75% activity in presence of decernotinib; format: functional, Homo sapiens
[30] = system: HEL; assay: Synergistic cytotoxicity against HEL cells assessed as combination index for 25% activity in presence of 3-cyclopropyl-1-(3-{5-[(morpholin-4-yl)methyl]-1H-1,3-benzodiazol-2-yl}-1H-pyrazol-4-yl)urea; format: functional, Homo sapiens
[31] = system: HEL; assay: Synergistic cytotoxicity against HEL cells assessed as combination index for 95% activity in presence of decernotinib; format: functional, Homo sapiens
[32] = system: HEL; assay: Synergistic cytotoxicity against HEL cells assessed as combination index for 75% activity in presence of 3-cyclopropyl-1-(3-{5-[(morpholin-4-yl)methyl]-1H-1,3-benzodiazol-2-yl}-1H-pyrazol-4-yl)urea; format: functional, Homo sapiens
[33] = system: HEL; assay: Cytotoxicity against HEL cells assessed as inhibition of cell growth at 0.0016 uM relative to control; format: functional; details: Homo sapiens
[34] = system: HEL; assay: Cytotoxicity against HEL cells assessed as inhibition of cell growth; format: functional, cell-based; details: Homo sapiens
[35] = system: HEL; assay: Antitumor activity against HEL cells xenografted in Balb/c nude mouse assessed as tumor growth inhibition at 32.5 mg/kg, ip administered once daily for 14 consecutive days in presence of 3-cyclopropyl-1-(3-{5-[(morpholin-4-yl)methyl]-1H-1,3-benzodiazol-2-yl}-1H-pyrazol-4-yl)urea relative to control; format: functional, Homo sapiens; details: 336 h, time 14 day, read-out: TGI
[36] = system: HEL; assay: Cytotoxicity against HEL cells assessed as inhibition of cell growth at 100 uM relative to control; format: functional; details: Homo sapiens
[37] = system: HEL; assay: Cytotoxicity against HEL cells assessed as inhibition of cell growth incubated in presence of ruxolitinib; format: functional, cell-based; details: Homo sapiens
[38] = system: HEL; assay: Cytotoxicity against HEL cells assessed as inhibition of cell growth at 0.2 uM relative to control; format: functional; details: Homo sapiens
[39] = system: HEL; assay: Antitumor activity against HEL cells xenografted in Balb/c nude mouse assessed as induction of apoptosis in tumor at 32.5 mg/kg, ip administered once daily for 14 consecutive days in presence of 3-cyclopropyl-1-(3-{5-[(morpholin-4-yl)methyl]-1H-1,3-benzodiazol-2-yl}-1H-pyrazol-4-yl)urea by TUNEL assay relative to control; format: functional, organism-based; details: Homo sapiens, time 14.0 day

SMILES: Cc1cnc(Nc2ccc(N3CCNCC3)cc2)nc1Nc1cccc(S(=O)(=O)NC(C)(C)C)c1
- CI25 [1]: 2.447
- IC50 [2]: 1530 nM
- CI50 [3]: 2.226
- IC50 [4]: 2180 nM
- inhibition at 50 µM [5]: 94.5%
- inhibition in vivo at 32.5 mg/kg [6]: 62.3%
- IC50 [7]: 3070 nM
- IC50 [8]: 1410 nM
- IC50 [9]: 1340 nM
- IC50 [10]: 1760 nM
- inhibition at 25 µM [11]: 95%
- IC50 [12]: 276 nM
- CI95 [13]: 0.948
- CI50 [14]: 2.528
- CI95 [15]: 1.366
- inhibition at 0.04 µM [16]: 14.2%
- CI50 [17]: 0.809
- CI25 [18]: 2.161
- IC50 [19]: 960 nM
- IC50 [20]: 550 nM
- CI25 [21]: 2.597
- CI75 [22]: 1.243
- inhibition at 1 µM [23]: 40.3%
- inhibition at 0.008 µM [24]: -2.98%
- CI75 [25]: 2.613
- CI95 [26]: 2.769
- CI50 [27]: 1.636
- inhibition at 5 µM [28]: 70.9%
- CI75 [29]: 1.947
- CI25 [30]: 0.683
- CI95 [31]: 1.628
- CI75 [32]: 0.972
- inhibition at 0.0016 µM [33]: 3.19%
- IC50 [34]: 1160 nM
- inhibition in vivo at 32.5 mg/kg [35]: 91.2%
- inhibition at 100 µM [36]: 95.6%
- IC50 [37]: 2450 nM
- inhibition at 0.2 µM [38]: 16.5%
- Activity [39]: Active
